The target in test [1] is Integrin alpha5/beta1 (Homo sapiens). As to the kind of experiment: Agonist activity at alpha5beta1 integrin receptor in human K562 cells assessed as inhibition of fibronectin-induced cell adhesion pre-incubated for 30 mins followed by 1 hr incubation in fibronectin coated wells by fluorescence plate reader assay.
Test [2] deals with Integrin alpha-L/beta-2 (LFA-1) (Homo sapiens). Nature of the test: Agonist activity at alphaLbeta2 integrin receptor in human Jurkat E6.1 cells assessed as inhibition of ICAM-1-induced cell adhesion pre-incubated for 30 mins followed by 30 mins incubation in ICAM-1 coated wells by fluorescence plate reader assay.
Test [3] concerns the target Integrin alpha4/beta1 (Homo sapiens). As to the kind of experiment: Agonist activity at alpha4beta1 integrin receptor in human Jurkat E6.1 cells assessed as inhibition of vascular cell adhesion molecule 1-induced cell adhesion pre-incubated for 30 mins followed by 30 mins incubation in vascular cell adhesion molecule 1 coated wells by fluorescence plate reader assay.
Test [4] shares this target. Nature of the test: Agonist activity at alpha4beta1 integrin receptor in human Jurkat E6.1 cells assessed as inhibition of fibronectin-induced cell adhesion pre-incubated for 30 mins followed by 30 mins incubation in fibronectin coated wells by fluorescence plate reader assay.

EC50 data for two compounds are collected here from BindingDB's records for doi:10.1021/acs.jmedchem.2c02098 (University of Bologna, 2023).

Broadly, the EC50 is the midpoint of the concentration-response curve. As to `Cc1ccccc1NC(=O)N1C(=O)CC1CC(=O)O` (stereo not given), the EC50 in test [1] and in test [2] was > 5 µM throughout.

Take `Cc1ccccc1NC(=O)N1C(=O)CC1CC(=O)NCC(=O)O` (stereo not given): the EC50 in test [3], in test [4] and in test [2] was > 5 µM throughout.
